{"source": "ChEMBL document CHEMBL5104207", "about": "“Synthesis, biological evaluation and computational studies of pyrazole derivatives as Mycobacterium tuberculosis CYP121A1 inhibitors” (RSC Med Chem, 2022)", "note": "Active and inactive are the calls of the source. The calls are words filed in the database; no cut-off is given here."}
{"tested_on": "Mycobacterium tuberculosis", "test": "Binding affinity to BTFA labelled recombinant Mycobacterium tuberculosis CYP121A1 C171S mutant assessed as change in chemical shift perturbation incubated for 15 mins by 19F NMR spectroscopy"}
{"smiles": "CC(C)Oc1ccc(-c2nn(-c3ccc(F)cc3)cc2Cn2ccnc2)cc1", "Activity": "Active"}
{"smiles": "CCOc1ccc(-c2nn(-c3ccc(Cl)cc3)cc2Cn2cncn2)cc1", "Activity": "Active"}
{"smiles": "COc1ccc(-c2nn(-c3ccc(F)cc3)cc2Cn2ccnc2)cc1", "Activity": "Active"}
{"smiles": "COc1ccc(-c2nn(-c3ccc(Cl)cc3)cc2Cn2cncn2)cc1", "Activity": "Active"}
